Measured values: PMC11480411, “Mucosal sugars delineate pyrazine vs pyrazinone autoinducer signaling in Klebsiella oxytoca” (Nature Communications, 2024)

Assays:
Assay in all cases: PRESTO-Tango GPCR screen
Format in all cases: cell-based
Conditions in all cases: 100 µM
GPR125 = target: T1, GPR125 (Homo sapiens, UniProt Q8IWK6)
T1 construct: purchased PRESTO-Tango GPCR kit (Roth lab / Addgene)
Summary of the method: (§1)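 A Tango reporter setup in HTLA cells was used, with each receptor introduced by transient transfection. Compound exposure lasted 20 h at 100 μM final, followed by Bright-Glo luminescence measurement; activation was expressed relative to PBS-treated wells.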

GPR27 = target: T2, GPR27 (Homo sapiens, UniProt Q9NS67)
T2 construct: purchased PRESTO-Tango GPCR kit (Roth lab / Addgene)
Summary of the method: as §1

ADORA3 = target: T3, ADORA3 (Homo sapiens, UniProt P0DMS8)
T3 construct: purchased PRESTO-Tango GPCR kit (Roth lab / Addgene)
Summary of the method: as §1

ADORA2A = target: T4, ADORA2A (Homo sapiens, UniProt P29274)
T4 construct: purchased PRESTO-Tango GPCR kit (Roth lab / Addgene)
T4 sequence (P29274 whole entry): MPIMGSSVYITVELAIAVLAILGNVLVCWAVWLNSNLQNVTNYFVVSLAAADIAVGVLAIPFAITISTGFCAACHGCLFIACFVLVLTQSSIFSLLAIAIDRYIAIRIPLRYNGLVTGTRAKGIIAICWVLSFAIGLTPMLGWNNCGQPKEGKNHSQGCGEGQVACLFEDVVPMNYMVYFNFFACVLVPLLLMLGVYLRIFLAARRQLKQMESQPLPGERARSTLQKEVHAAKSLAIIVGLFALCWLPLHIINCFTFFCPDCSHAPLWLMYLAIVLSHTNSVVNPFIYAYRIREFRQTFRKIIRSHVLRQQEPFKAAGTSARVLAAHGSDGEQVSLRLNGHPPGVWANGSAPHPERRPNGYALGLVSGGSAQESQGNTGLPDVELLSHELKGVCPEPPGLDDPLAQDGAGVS
Summary of the method: as §1

CCR4 = target: T5, CCR4 (Homo sapiens, UniProt P51679)
T5 construct: purchased PRESTO-Tango GPCR kit (Roth lab / Addgene)
T5 sequence (P51679 whole entry): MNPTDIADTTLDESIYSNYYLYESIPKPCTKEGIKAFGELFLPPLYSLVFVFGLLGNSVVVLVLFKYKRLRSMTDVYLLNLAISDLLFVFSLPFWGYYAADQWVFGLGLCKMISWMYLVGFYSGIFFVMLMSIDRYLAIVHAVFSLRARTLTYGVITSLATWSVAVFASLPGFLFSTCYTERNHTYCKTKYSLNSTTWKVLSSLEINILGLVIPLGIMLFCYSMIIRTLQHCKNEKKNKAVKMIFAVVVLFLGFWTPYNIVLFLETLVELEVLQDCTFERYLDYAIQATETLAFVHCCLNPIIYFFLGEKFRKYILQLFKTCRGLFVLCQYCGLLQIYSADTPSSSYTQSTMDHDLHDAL
Summary of the method: as §1

GPR144 = target: T6, GPR144 (Homo sapiens, UniProt Q7Z7M1)
T6 construct: purchased PRESTO-Tango GPCR kit (Roth lab / Addgene)
Summary of the method: as §1

BDKBR2 = target: T7, BDKBR2 (Homo sapiens, UniProt P30411)
T7 construct: purchased PRESTO-Tango GPCR kit (Roth lab / Addgene)
Summary of the method: as §1

GPR32 = target: T8, GPR32 (Homo sapiens, UniProt O75388)
T8 construct: purchased PRESTO-Tango GPCR kit (Roth lab / Addgene)
Summary of the method: as §1

DRD2 = target: T9, DRD2 (Homo sapiens, UniProt P14416)
T9 construct: purchased PRESTO-Tango GPCR kit (Roth lab / Addgene)
Summary of the method: as §1

CCR2 = target: T10, CCR2 (Homo sapiens, UniProt P41597)
T10 construct: purchased PRESTO-Tango GPCR kit (Roth lab / Addgene)
Summary of the method: as §1

GPER = target: T11, GPER (Homo sapiens, UniProt Q99527)
T11 construct: purchased PRESTO-Tango GPCR kit (Roth lab / Addgene)
T11 sequence (Q99527 whole entry): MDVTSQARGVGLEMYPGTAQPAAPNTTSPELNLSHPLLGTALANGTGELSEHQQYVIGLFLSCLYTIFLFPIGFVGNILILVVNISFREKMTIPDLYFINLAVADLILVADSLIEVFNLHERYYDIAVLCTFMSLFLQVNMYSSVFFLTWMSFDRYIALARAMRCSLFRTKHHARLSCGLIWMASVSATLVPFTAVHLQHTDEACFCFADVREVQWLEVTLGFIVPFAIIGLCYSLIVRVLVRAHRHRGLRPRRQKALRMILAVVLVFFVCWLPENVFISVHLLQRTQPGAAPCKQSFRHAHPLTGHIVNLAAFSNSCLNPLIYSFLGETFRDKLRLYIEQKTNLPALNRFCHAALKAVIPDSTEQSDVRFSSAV
Summary of the method: as §1

DRD1 = target: T12, DRD1 (Homo sapiens, UniProt P21728)
T12 construct: purchased PRESTO-Tango GPCR kit (Roth lab / Addgene)
T12 sequence (P21728 whole entry): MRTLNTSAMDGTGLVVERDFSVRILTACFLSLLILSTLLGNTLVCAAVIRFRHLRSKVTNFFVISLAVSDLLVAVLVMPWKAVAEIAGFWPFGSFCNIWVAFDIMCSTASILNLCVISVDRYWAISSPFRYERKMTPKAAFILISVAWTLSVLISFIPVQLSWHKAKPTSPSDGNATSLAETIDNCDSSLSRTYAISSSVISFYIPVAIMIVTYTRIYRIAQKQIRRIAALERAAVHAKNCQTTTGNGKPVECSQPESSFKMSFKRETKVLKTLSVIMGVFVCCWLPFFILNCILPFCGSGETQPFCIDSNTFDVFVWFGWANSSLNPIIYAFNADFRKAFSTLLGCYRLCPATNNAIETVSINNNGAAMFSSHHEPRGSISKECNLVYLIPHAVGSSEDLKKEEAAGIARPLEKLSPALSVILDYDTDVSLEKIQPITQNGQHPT
Summary of the method: as §1

GPR151 = target: T13, GPR151 (Homo sapiens, UniProt Q8TDV0)
T13 construct: purchased PRESTO-Tango GPCR kit (Roth lab / Addgene)
Summary of the method: as §1

GPR3 = target: T14, GPR3 (Homo sapiens, UniProt P46089)
T14 construct: purchased PRESTO-Tango GPCR kit (Roth lab / Addgene)
Summary of the method: as §1

PTH2R = target: T15, PTH2R (Homo sapiens, UniProt P49190)
T15 construct: purchased PRESTO-Tango GPCR kit (Roth lab / Addgene)
Summary of the method: as §1

OPRL1 = target: T16, OPRL1 (Homo sapiens, UniProt P41146)
T16 construct: purchased PRESTO-Tango GPCR kit (Roth lab / Addgene)
Summary of the method: as §1

HCTR2 = target: T17, HCTR2 (Homo sapiens, UniProt O43614)
T17 construct: purchased PRESTO-Tango GPCR kit (Roth lab / Addgene)
Summary of the method: as §1

SSTR3 = target: T18, SSTR3 (Homo sapiens, UniProt P32745)
T18 construct: purchased PRESTO-Tango GPCR kit (Roth lab / Addgene)
Summary of the method: as §1

GPR158 = target: T19, GPR158 (Homo sapiens, UniProt Q5T848)
T19 construct: purchased PRESTO-Tango GPCR kit (Roth lab / Addgene)
T19 sequence (Q5T848 24-1215): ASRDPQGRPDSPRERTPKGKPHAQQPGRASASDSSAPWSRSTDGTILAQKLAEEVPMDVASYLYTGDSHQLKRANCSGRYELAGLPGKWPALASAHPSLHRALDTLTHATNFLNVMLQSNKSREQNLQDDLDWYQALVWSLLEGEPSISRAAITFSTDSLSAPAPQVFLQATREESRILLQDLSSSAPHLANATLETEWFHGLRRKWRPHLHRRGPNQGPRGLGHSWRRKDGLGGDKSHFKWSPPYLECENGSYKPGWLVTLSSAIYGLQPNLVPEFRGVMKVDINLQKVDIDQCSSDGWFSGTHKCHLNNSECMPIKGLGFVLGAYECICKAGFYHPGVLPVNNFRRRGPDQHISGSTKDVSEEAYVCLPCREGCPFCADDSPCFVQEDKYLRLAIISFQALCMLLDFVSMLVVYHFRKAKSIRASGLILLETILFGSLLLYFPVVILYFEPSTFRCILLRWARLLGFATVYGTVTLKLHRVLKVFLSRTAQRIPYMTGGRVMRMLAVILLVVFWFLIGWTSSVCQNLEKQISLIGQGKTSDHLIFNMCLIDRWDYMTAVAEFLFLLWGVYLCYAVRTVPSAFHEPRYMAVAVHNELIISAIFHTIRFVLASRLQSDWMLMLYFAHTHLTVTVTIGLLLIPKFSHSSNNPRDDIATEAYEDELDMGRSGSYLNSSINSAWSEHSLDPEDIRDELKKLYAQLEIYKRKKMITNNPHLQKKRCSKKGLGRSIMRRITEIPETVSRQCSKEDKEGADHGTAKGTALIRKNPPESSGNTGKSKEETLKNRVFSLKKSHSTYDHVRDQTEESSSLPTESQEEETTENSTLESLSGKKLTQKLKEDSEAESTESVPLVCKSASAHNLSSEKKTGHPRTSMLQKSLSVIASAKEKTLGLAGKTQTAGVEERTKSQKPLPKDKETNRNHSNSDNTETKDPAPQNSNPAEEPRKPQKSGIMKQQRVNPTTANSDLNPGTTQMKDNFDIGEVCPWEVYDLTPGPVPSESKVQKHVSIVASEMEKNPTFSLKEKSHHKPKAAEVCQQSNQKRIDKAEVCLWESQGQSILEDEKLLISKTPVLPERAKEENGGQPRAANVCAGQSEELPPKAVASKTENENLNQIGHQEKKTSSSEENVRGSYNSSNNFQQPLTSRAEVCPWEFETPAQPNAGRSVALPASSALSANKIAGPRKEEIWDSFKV
Summary of the method: as §1

DRD4 = target: T20, DRD4 (Homo sapiens, UniProt P21917)
T20 construct: purchased PRESTO-Tango GPCR kit (Roth lab / Addgene)
Summary of the method: as §1

GPBA = target: T21, GPBA (Homo sapiens, UniProt Q8TDU6)
T21 construct: purchased PRESTO-Tango GPCR kit (Roth lab / Addgene)
Summary of the method: as §1

GPR110 = target: T22, GPR110 (Homo sapiens, UniProt Q5T601)
T22 construct: purchased PRESTO-Tango GPCR kit (Roth lab / Addgene)
Summary of the method: as §1

DRD3 = target: T23, DRD3 (Homo sapiens, UniProt P35462)
T23 construct: purchased PRESTO-Tango GPCR kit (Roth lab / Addgene)
Summary of the method: as §1

PTGDR = target: T24, PTGDR (Homo sapiens, UniProt Q13258)
T24 construct: purchased PRESTO-Tango GPCR kit (Roth lab / Addgene)
T24 sequence (Q13258 whole entry): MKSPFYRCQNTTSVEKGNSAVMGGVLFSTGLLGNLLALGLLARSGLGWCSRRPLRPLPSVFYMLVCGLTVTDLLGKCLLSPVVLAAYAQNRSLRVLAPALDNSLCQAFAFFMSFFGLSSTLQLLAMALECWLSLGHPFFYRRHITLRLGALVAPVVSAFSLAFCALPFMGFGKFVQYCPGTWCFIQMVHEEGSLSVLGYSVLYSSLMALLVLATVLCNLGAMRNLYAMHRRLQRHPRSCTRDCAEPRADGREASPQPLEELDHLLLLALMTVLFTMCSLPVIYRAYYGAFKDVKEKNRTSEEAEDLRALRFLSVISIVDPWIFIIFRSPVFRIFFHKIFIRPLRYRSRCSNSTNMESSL
Summary of the method: as §1

SSTR2 = target: T25, SSTR2 (Homo sapiens, UniProt P30874)
T25 construct: purchased PRESTO-Tango GPCR kit (Roth lab / Addgene)
Summary of the method: as §1

GPR19 = target: T26, GPR19 (Homo sapiens, UniProt Q15760)
T26 construct: purchased PRESTO-Tango GPCR kit (Roth lab / Addgene)
Summary of the method: as §1

GAL2 = target: T27, GAL2 (Homo sapiens, UniProt O43603)
T27 construct: purchased PRESTO-Tango GPCR kit (Roth lab / Addgene)
Summary of the method: as §1

GLP1R = target: T28, GLP1R (Homo sapiens, UniProt P43220)
T28 construct: purchased PRESTO-Tango GPCR kit (Roth lab / Addgene)
T28 sequence (P43220 24-463): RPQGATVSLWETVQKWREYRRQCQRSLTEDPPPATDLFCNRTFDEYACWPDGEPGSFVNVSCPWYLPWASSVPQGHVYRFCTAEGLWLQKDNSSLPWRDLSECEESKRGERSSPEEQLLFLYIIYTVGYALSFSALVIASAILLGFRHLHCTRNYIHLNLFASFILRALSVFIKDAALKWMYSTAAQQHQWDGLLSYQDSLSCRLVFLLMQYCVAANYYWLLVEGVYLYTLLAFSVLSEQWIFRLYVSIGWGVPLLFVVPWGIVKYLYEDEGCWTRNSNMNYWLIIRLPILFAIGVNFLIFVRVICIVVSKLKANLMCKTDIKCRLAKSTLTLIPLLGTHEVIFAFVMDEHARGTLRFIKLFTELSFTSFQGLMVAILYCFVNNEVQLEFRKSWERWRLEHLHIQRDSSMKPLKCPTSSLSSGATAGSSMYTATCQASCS
Summary of the method: as §1

GPR34 = target: T29, GPR34 (Homo sapiens, UniProt Q9UPC5)
T29 construct: purchased PRESTO-Tango GPCR kit (Roth lab / Addgene)
Summary of the method: as §1

GPR25 = target: T30, GPR25 (Homo sapiens, UniProt O00155)
T30 construct: purchased PRESTO-Tango GPCR kit (Roth lab / Addgene)
Summary of the method: as §1

GABBR1 = target: T31, GABBR1 (Homo sapiens, UniProt Q9UBS5)
T31 construct: purchased PRESTO-Tango GPCR kit (Roth lab / Addgene)
Summary of the method: as §1

GPR143 = target: T32, GPR143 (Homo sapiens, UniProt P51810)
T32 construct: purchased PRESTO-Tango GPCR kit (Roth lab / Addgene)
Summary of the method: as §1

NPFF1 = target: T33, NPFF1 (Homo sapiens, UniProt Q9GZQ6)
T33 construct: purchased PRESTO-Tango GPCR kit (Roth lab / Addgene)
T33 sequence (Q9GZQ6 whole entry): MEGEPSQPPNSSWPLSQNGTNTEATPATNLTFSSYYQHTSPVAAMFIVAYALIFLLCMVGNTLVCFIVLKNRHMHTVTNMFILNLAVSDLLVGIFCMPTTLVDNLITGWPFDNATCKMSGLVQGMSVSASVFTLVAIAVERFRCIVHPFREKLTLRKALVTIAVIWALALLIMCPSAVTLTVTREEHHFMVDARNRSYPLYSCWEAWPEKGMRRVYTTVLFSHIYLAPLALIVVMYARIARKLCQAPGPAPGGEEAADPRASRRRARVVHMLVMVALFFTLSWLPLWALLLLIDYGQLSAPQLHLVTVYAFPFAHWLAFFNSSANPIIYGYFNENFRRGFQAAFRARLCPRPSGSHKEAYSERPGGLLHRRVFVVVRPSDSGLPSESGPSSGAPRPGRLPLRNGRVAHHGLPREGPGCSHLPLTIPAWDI
Summary of the method: as §1

GPR26 = target: T34, GPR26 (Homo sapiens, UniProt Q8NDV2)
T34 construct: purchased PRESTO-Tango GPCR kit (Roth lab / Addgene)
T34 sequence (Q8NDV2 whole entry): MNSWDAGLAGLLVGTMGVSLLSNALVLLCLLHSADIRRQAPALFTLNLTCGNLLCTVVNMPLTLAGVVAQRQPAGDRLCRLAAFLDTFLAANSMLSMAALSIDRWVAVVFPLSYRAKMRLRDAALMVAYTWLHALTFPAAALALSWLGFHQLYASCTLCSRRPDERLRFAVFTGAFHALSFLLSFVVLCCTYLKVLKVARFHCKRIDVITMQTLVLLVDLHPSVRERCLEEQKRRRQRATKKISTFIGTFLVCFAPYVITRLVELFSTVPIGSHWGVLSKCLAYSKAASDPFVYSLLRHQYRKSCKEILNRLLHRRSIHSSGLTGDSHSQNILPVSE
Summary of the method: as §1

GAL3 = target: T35, GAL3 (Homo sapiens, UniProt O60755)
T35 construct: purchased PRESTO-Tango GPCR kit (Roth lab / Addgene)
Summary of the method: as §1

TACR1 = target: T36, TACR1 (Homo sapiens, UniProt P25103)
T36 construct: purchased PRESTO-Tango GPCR kit (Roth lab / Addgene)
T36 sequence (P25103 whole entry): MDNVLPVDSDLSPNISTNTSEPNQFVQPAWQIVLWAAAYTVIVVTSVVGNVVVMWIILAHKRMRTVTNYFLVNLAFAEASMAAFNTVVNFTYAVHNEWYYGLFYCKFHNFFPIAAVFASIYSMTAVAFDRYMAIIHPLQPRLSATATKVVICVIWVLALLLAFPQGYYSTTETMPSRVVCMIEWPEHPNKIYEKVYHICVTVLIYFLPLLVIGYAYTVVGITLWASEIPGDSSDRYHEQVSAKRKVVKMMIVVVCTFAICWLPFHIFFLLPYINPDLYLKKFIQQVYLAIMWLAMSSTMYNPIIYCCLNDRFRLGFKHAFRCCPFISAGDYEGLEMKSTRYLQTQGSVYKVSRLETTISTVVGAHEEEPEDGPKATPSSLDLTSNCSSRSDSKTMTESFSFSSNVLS
Summary of the method: as §1

Row | Compound | GPCR activation (heatmap value) (GPR125) | GPCR activation (heatmap value) (GPR27) | GPCR activation (heatmap value) (ADORA3) | GPCR activation (heatmap value) (ADORA2A) | GPCR activation (heatmap value) (CCR4) | GPCR activation (heatmap value) (GPR144) | GPCR activation (heatmap value) (BDKBR2) | GPCR activation (heatmap value) (GPR32) | GPCR activation (heatmap value) (DRD2) | GPCR activation (heatmap value) (CCR2) | GPCR activation (heatmap value) (GPER) | GPCR activation (heatmap value) (DRD1) | GPCR activation (heatmap value) (GPR151) | GPCR activation (heatmap value) (GPR3) | GPCR activation (heatmap value) (PTH2R) | GPCR activation (heatmap value) (OPRL1) | GPCR activation (heatmap value) (HCTR2) | GPCR activation (heatmap value) (SSTR3) | GPCR activation (heatmap value) (GPR158) | GPCR activation (heatmap value) (DRD4) | also measured
1 | CC(C)Cc1ncc(CCCCNC(=N)N)[nH]c1=O [3-Homo] | -0.2637 | -0.5119 | -0.404 | 0.2086 | 0.4296 | -0.2529 | -0.09391 | -0.1389 | -0.9836 | -0.2415 | -0.07314 | 0.1434 | 0.4419 | -1.589 | -0.1142 | 0.777 | -1.63 | 0.1422 | -0.4311 | -0.04181 | GPCR activation (heatmap value) (GPBA): -0.06085; GPCR activation (heatmap value) (GPR110): -1.142; GPCR activation (heatmap value) (DRD3): 0.04182; GPCR activation (heatmap value) (PTGDR): 0.1368; GPCR activation (heatmap value) (SSTR2): 0.327; GPCR activation (heatmap value) (GPR19): -0.2115; GPCR activation (heatmap value) (GAL2): 0.5878; GPCR activation (heatmap value) (GLP1R): 0.1789; GPCR activation (heatmap value) (GPR34): -0.6255; GPCR activation (heatmap value) (GPR25): -0.6766; GPCR activation (heatmap value) (GABBR1): -1.048; GPCR activation (heatmap value) (GPR143): -0.07136; GPCR activation (heatmap value) (NPFF1): -0.4803; GPCR activation (heatmap value) (GPR26): -1.573; GPCR activation (heatmap value) (GAL3): 0.4523; GPCR activation (heatmap value) (TACR1): -0.4178
2 | CC(C)Cc1ncc(CCCNC(=N)N)[nH]c1=O [compound 3] | 0.4657 | 0.1426 | -0.3342 | 0.347 | -0.299 | 0.6653 | -0.1686 | 0.07937 | 0.05842 | 0.059 | 0.1603 | 0.8634 | -0.03391 | -0.8156 | -0.2039 | 0.326 | -0.2618 | -0.3508 | -0.2474 | 0.4609 | GPCR activation (heatmap value) (GPBA): -0.136; GPCR activation (heatmap value) (GPR110): 0.3323; GPCR activation (heatmap value) (DRD3): 0.613; GPCR activation (heatmap value) (PTGDR): 0.8064; GPCR activation (heatmap value) (SSTR2): -0.806; GPCR activation (heatmap value) (GPR19): -0.1336; GPCR activation (heatmap value) (GAL2): 0.1995; GPCR activation (heatmap value) (GLP1R): 0.3036; GPCR activation (heatmap value) (GPR34): 0.3024; GPCR activation (heatmap value) (GPR25): -0.8885; GPCR activation (heatmap value) (GABBR1): 0.7353; GPCR activation (heatmap value) (GPR143): 0.5685; GPCR activation (heatmap value) (NPFF1): 0.7283; GPCR activation (heatmap value) (GPR26): 2.339; GPCR activation (heatmap value) (GAL3): 0.02852; GPCR activation (heatmap value) (TACR1): -0.6956
